The term EC50 denotes the concentration that produces a half-maximal response.

For the assay, the target named is T1, human RXFP1 (Homo sapiens, UniProt Q9HBX9).
T1 construct: expressed in transfected cells
T1 sequence (Q9HBX9 1-757): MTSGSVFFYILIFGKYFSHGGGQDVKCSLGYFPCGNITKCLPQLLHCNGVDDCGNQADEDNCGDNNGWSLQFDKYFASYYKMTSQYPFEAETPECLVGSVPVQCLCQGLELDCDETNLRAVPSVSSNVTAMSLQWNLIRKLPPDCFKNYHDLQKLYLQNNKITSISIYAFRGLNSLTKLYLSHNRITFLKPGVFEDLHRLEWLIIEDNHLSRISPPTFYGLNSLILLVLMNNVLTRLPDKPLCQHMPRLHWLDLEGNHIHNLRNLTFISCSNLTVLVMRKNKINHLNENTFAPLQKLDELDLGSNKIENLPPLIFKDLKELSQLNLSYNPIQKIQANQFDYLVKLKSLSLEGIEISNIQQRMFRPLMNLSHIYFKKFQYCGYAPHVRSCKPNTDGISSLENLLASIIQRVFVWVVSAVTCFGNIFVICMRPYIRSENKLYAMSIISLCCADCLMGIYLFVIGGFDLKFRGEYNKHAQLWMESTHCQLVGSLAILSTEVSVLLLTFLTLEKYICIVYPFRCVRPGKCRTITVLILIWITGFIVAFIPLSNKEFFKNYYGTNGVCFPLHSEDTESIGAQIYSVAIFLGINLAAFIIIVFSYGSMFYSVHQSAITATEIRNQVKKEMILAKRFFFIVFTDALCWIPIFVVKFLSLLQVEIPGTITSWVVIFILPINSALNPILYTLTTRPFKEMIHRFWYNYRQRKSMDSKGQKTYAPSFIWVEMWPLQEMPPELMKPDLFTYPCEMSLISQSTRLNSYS
Kind of assay: hRXFP1 HEK293 cAMP assay (HTRF). In kind it is cell-based. The following applies: HEK293 cells stably expressing human RXFP1, 30 min at room temperature. In outline:
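In a stable human RXFP1 HEK293 line, compounds acted for 30 min at RT in buffer with 0.5 mM IBMX. HTRF then quantified cellular cAMP.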
(cAMP levels reflect the balance of adenylyl cyclase and phosphodiesterase activity.)
As for `COc1ccc(COC[C@@H]2C[C@@H]2CO)cc1C(=O)N[C@H]1[C@@H](C(=O)Nc2ccc(F)c(C(F)(F)F)c2)[C@H]2CC[C@@H]1/C2=C\C1CC1` [Example 293, (1R,2S,3R,4R,7Z)-7-(cyclopropyl-methylidene)-N-[4-fluoro-3-(trifluoromethyl)phonyl]-3-[5-({[(1R,2S)-2-(hydroxymethyl)cyclopropyl]methoxy}methyl)-2-methoxybenzamido] bicyclo[2.2.1]heptane-2-carboxamide], the EC50 is 67.1 nM.

The molecule `COc1ccc(CCC(C)(C)O)cc1C(=O)NC1C2CCC(/C2=C/C2CCCC2)[C@@H]1C(=O)Nc1ccc(F)c(C(F)(F)F)c1` (stereo partly drawn) [Example 168, (7Z)-7-(cyclopentylmethyli-dene)-N-[4-fluoro-3-(trifluoromethyl)phe-nyl]-3-[5-(3-hydroxy-3-methylbutyl)-2-methoxybenzamido] bicyclo[2.2.1]heptane-2-carboxamide] gave an EC50 of 8 nM.

Take `COc1ccc(C2CCCC(OC(=O)Nc3ccccc3)C2)cc1C(=O)N[C@@H]1C2CCC(/C2=C/C(F)(F)F)[C@@H]1C(=O)Nc1ccc(F)c(C(F)(F)F)c1` (single isomer, unassigned) [Example 41]: a half-maximal response (EC50) required 201 nM.

On to `COc1ccc(CCCCCCOC(=O)NC2CCC2)cc1C(=O)N[C@@H]1C2CCC(/C2=C/C(F)(F)F)[C@@H]1C(=O)Nc1ccc(F)c(C(F)(F)F)c1` (stereo partly drawn) [Example 101, 6-(3-{[(2R,3S,7Z)-3-{[4-fluoro-3-(trifluoromethyl)phe-nyl]carbamoyl}-7-(2,2,2-trifluoroethylidene)bi-cyclo[2.2.1]heptan-2-yl]carbamoyl}-4-methoxyphenyl)hex-yl N-cyclobutylcarbamate], for which the EC50 is 194 nM.

With `COc1ccc(C2CCCCC2O)cc1C(=O)N[C@@H]1C2CCC(/C2=C/C(F)(F)F)[C@@H]1C(=O)Nc1ccc(F)c(C(F)(F)F)c1` (single isomer, unassigned) [Example 58], the EC50 came to 1200 nM.

Turning to `COc1ccc(/C=C/C(=O)O)cc1C(=O)N[C@H]1[C@@H](C(=O)Nc2ccc(F)c(C(F)(F)F)c2)[C@H]2CC[C@@H]1/C2=C\C(F)(F)F` [Example 8, (E)-3-(3-(((1R,2R,3S,4R,Z)-3-((4-fluoro-3-(trifluoromethyl)phenyl)carbamoyl)-7-(2,2,2-trifluoroethylidene)bicyclo[2.2.1]heptan-2-yl)carbamoyl)-4-methoxyphenyl) acrylic acid], it took 309 nM to reach a half-maximal effect (EC50).

`COc1ccc(COCCC(=O)O)cc1C(=O)N[C@@H]1C2CCC(/C2=C/c2ccccc2)[C@@H]1C(=O)Nc1ccc(F)c(C(F)(F)F)c1` (stereo partly drawn) [Example 28, 3-[(3-{[(2R,3S,7Z)-3-{[4-fluoro-3-(trifluoromethyl)phe-nyl]carbamoyl}-7-(phenylmethylidene)bicyclo[2.2.1]heptan-2-yl]carbamoyl}-4-methoxyphenyl)meth-oxy]propanoic acid] gave an EC50 of 56 nM.

Turning to `COC(=O)c1ccc(F)cc1Cc1ccc(OC)c(C(=O)NC2C3CCC(/C3=C/C(F)(F)F)[C@@H]2C(=O)Nc2ccc(F)c(C(F)(F)F)c2)c1` (stereo partly drawn) [Example 156, methyl 4-fluoro-2-[(3-{[(2R,3S,7Z)-3-{[4-fluoro-3-(trifluoromethyl)phe-nyl]carbamoyl}-7-(2,2,2-trifluoroethylidene)bi-cyclo[2.2.1]heptan-2-yl]carbamoyl}-4-methoxyphenyl)meth-yl]benzoate], the 50% effective concentration (EC50) amounted to 464 nM.

In turn, “(1R,4R,7Z)-7-(2- cyclobutylethylidene)- N-[4-fluoro-3- (trifluoromethyl) phenyl]-3-[5-(3- hydroxy-3- methylbutyl)-2- methoxybenzamido] bicyclo[2.2.1]heptane- 2-carboxamide [Example 262]” displayed a concentration giving a half-maximal response (EC50) of 197 nM.

Take `COC(=O)/C=C\c1ccc(OC)c(C(=O)N[C@H]2[C@@H](C(=O)Nc3ccc(F)c(C(F)(F)F)c3)[C@H]3CC[C@@H]2/C3=C\C(F)(F)F)c1` [Example 304, methyl (2Z)-3-(3-{[(1R,2R,3S,4R,7Z)-3-{[4-fluoro-3-(trifluoromethyl)phenyl]carbamoyl}-7-(2,2,2-trifluoroethylidene)bicyclo[2.2.1]heptan-2-yl]carbamoyl}-4-methoxyphenyl) prop-2-enoate]: the EC50 came out at 597 nM.

For the molecule `COc1ccc(C2CC2CO)cc1C(=O)N[C@@H]1C2CCC(/C2=C/C(F)(F)F)[C@@H]1C(=O)Nc1ccc(F)c(C(F)(F)F)c1` (single isomer, unassigned) [Example 64], the EC50 came to 252 nM.

As for `COc1cc(CN2C(=O)CNC2=O)ccc1C(=O)N[C@@H]1C2CCC(/C2=C/C(F)(F)F)[C@@H]1C(=O)Nc1ccc(F)c(C(F)(F)F)c1` (stereo partly drawn) [Example 26, (2S,3R,7Z)-3-{4-[(2,5-dioxoimidazolidin-1-yl)methyl]-2-methoxybenzamido}-N-[4-fluoro-3-(trifluoromethyl)phe-nyl]-7-(2,2,2-trifluoroethylidene)bi-cyclo[2.2.1]heptane-2-carboxamide], the EC50 turned out to be 1380 nM.

As to `COc1ccc(C(=O)N2CC(C)(C)C2)cc1C(=O)N[C@H]1[C@@H](C(=O)Nc2ccc(F)c(C(F)(F)F)c2)[C@H]2CC[C@@H]1/C2=C\C1CC1` [Example 237], the EC50 was 41.3 nM.

As to `COc1ccc(CCCNC2CCC2)cc1C(=O)N[C@@H]1C2CCC(/C2=C/C(F)(F)F)[C@@H]1C(=O)Nc1ccc(F)c(C(F)(F)F)c1` (stereo partly drawn) [Example 122, (2S,3R,7Z)-3-{5-[3-(cyclobutylamino)pro-pyl]-2-methoxybenzamido}-N-[4-fluoro-3-(trifluoromethyl)phe-nyl]-7-(2,2,2-trifluoroethylidene)bi-cyclo[2.2.1]heptane-2-carboxamide], the midpoint of the response, the EC50, lay at 2810 nM.

`COc1ccc(C2CC2C(=O)N2CCC(O)CC2)cc1C(=O)N[C@H]1[C@@H](C(=O)Nc2ccc(F)c(C(F)(F)F)c2)[C@H]2CC[C@@H]1/C2=C\C(F)(F)F` (single isomer, unassigned) [Example 322]: the EC50 came to 331 nM.

Turning to `COc1ccc(S(=O)(=O)NC2CCOC2)cc1C(=O)NC1C2CCC(/C2=C/C(F)(F)F)[C@@H]1C(=O)Nc1ccc(F)c(C(F)(F)F)c1` (stereo partly drawn) [Example 198, (2S,3R,7Z)-N-[4-fluoro-3-(trifluoromethyl)phe-nyl]-3-{2-methoxy-5-[(oxolan-3-yl)sulfamoyl]benza-mido}-7-(2,2,2-trifluoroethylidene)bi-cyclo[2.2.1]heptane-2-carboxamide], the EC50 amounted to 1920 nM.

`COc1ccc(CCCCCCC#N)cc1C(=O)NC1C2CCC(/C2=C/C2CCC2)[C@@H]1C(=O)Nc1ccc(F)c(C(F)(F)F)c1` (stereo partly drawn) [Example 192, (7Z)-3-[5-(6-cyanohexyl)-2-methoxybenzamido]-7-(cyclobutylmethyl-idene)-N-[4-fluoro-3-(trifluoromethyl)phe-nyl]bicyclo[2.2.1] heptane-2-carboxamide] showed an EC50 of 33 nM.

`COc1ccc(COC2CCC(O)CC2)cc1C(=O)N[C@H]1[C@@H](C(=O)Nc2ccc(F)c(C(F)(F)F)c2)[C@H]2CC[C@@H]1/C2=C\C1CC1` (stereo partly drawn) [Example 289, (1R,2S,3R,4R,7Z)-7-(cyclopropyl-methylidene)-N-[4-fluoro-3-(trifluoromethyl)phenyl]-3-(5-{[(4-hydroxycyclohexyl)oxy]methyl}-2-methoxybenzamido) bicyclo[2.2.1]heptane-2-carboxamide] displayed a concentration for a half-maximal effect (EC50) of 14.5 nM.

The values above are taken from patent US20250268903A1, “RXFP1 AGONISTS” (BRISTOL-MYERS SQUIBB COMPANY, priority 2021, published 2025).
